Biological target: T1, AP-4-A phosphorylase (Mycobacterium tuberculosis (strain ATCC 25618 / H37Rv), UniProt P9WMK9)
T1 sequence (P9WMK9 whole entry): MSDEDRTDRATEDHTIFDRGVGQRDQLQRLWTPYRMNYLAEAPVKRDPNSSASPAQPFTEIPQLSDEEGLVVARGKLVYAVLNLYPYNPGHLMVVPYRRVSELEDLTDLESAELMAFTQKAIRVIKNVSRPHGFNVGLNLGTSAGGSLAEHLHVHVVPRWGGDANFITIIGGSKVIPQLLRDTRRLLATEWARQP
Assay: FRET assay
Conditions: pH 8
Procedure: Dose response curves against Rv2613c with 1 as the substrate for derivatives 5 and 18. 8 nM of Rv2613c were preincubated in buffer (20 mM Tris-HCl (pH 8.0), 50 mM NaCl, 1 mM DTT, 0.2 mg/mL BSA, 5 mM NaH2PO4, 5 mM MgCl2) with indicated amounts of compound solved in DMSO at 25°C for 30 min. Substrate 1 (2 µM in Tris-HCl buffer pH 8.0) was added Measurement of the fluorescence at 570 nm was conducted every 3 min over 1 h. Turnover of probe 1 was calculated by normalization to the intensity of controls. The rate of probe 1 turnover was obtained by linear fitting of probe 1 turnover over time. % Inhibition was calculated relative to the controls. The IC50 was calculated by a non-linear curve fit/dose response curve in Origin.

Compound	IC50 [µM]
CCCc1cccc(N/C(SC)=C(\C#N)S(=O)(=O)c2ccccc2)c1 [Synthesized Sulfanylacrylonitril Derivatives 19]	0.96
CS/C(Nc1cc(C(F)(F)F)cc(C(F)(F)F)c1)=C(/C#N)S(=O)(=O)c1ccccc1 [Synthesized Sulfanylacrylonitril Derivatives 8]	> 100
CS/C(Nc1ccccc1)=C(/C#N)S(=O)(=O)c1ccccc1 [Synthesized Sulfanylacrylonitril Derivatives 3]	> 30
CS/C(Nc1cccc(C#N)c1)=C(/C#N)S(=O)(=O)c1ccccc1 [Synthesized Sulfanylacrylonitril Derivatives 16]	2.51
CS/C(Nc1cccc(C)c1)=C(/C#N)S(=O)(=O)c1ccccc1 [Synthesized Sulfanylacrylonitril Derivatives 14]	4.62
CC(C)S/C(Nc1cccc(C(F)(F)F)c1)=C(/C#N)S(=O)(=O)c1ccccc1 [Synthesized Sulfanylacrylonitril Derivatives 11]	0.94
CS/C(Nc1cc(C)cc(C)c1)=C(/C#N)S(=O)(=O)c1ccccc1 [Synthesized Sulfanylacrylonitril Derivatives 22]	> 100
CCCS/C(Nc1cccc(C(F)(F)F)c1)=C(/C#N)S(=O)(=O)c1ccccc1 [Synthesized Sulfanylacrylonitril Derivatives 10]	0.47
CS/C(Nc1ccccc1C(F)(F)F)=C(/C#N)S(=O)(=O)c1ccccc1 [Synthesized Sulfanylacrylonitril Derivatives 6]	> 100
COC(=O)c1cccc(N/C(SC)=C(\C#N)S(=O)(=O)c2ccccc2)c1 [Synthesized Sulfanylacrylonitril Derivatives 17]	21.8
CS/C(Nc1cccc(C(F)(F)F)c1)=C(/C#N)S(=O)(=O)c1ccccc1 [Synthesized Sulfanylacrylonitril Derivatives 5]	0.12
COc1cccc(N/C(SC)=C(\C#N)S(=O)(=O)c2ccccc2)c1 [Synthesized Sulfanylacrylonitril Derivatives 21]	11.3
N#C/C(=C(\Nc1cccc(C(F)(F)F)c1)SCc1ccccc1)S(=O)(=O)c1ccccc1 [Synthesized Sulfanylacrylonitril Derivatives 12]	0.8
CS/C(Nc1ccccc1)=C(/C#N)S(=O)(=O)c1ccc(Cl)cc1 [Synthesized Sulfanylacrylonitril Derivatives 4]	> 100
CS/C(Nc1ccc(C(F)(F)F)cc1)=C(/C#N)S(=O)(=O)c1ccccc1 [Synthesized Sulfanylacrylonitril Derivatives 7]	16.3
CS/C(Nc1cccc(C(F)(F)F)c1)=C(/C#N)S(=O)(=O)c1ccc(Cl)cc1 [Synthesized Sulfanylacrylonitril Derivatives 2]	0.26
CS/C(Nc1cccc([N+](=O)[O-])c1)=C(/C#N)S(=O)(=O)c1ccccc1 [Synthesized Sulfanylacrylonitril Derivatives 15]	1.3
CS/C(Nc1cccc(C(C)C)c1)=C(/C#N)S(=O)(=O)c1ccccc1 [Synthesized Sulfanylacrylonitril Derivatives 20]	1.77
CCc1cccc(N/C(SC)=C(\C#N)S(=O)(=O)c2ccccc2)c1 [Synthesized Sulfanylacrylonitril Derivatives 18]	0.57
